Biological target: human factor Xa (Homo sapiens, UniProt P00742)
Experiment: biochemical
Conditions: human factor Xa 3 nM, chromogenic substrate S-2222, HNPT buffer pH 7.8, room temperature; apparent Ki calculated from IC50 according to Cheng and Prusoff
Experimental: Factor Xa activity was measured spectrophotometrically in microtiter plates in a final volume of 150 μl using the following conditions: Inhibition of human factor Xa (Enzyme Research Laboratories) was tested at an enzyme concentration of 3 nM using the chromogenic substrate S-2222 (Chromogenix AB, Mölndal, Sweden) at 200 nM. The reaction kinetics of the enzyme and the substrate were linear with both time and the enzyme concentration. The inhibitors were dissolved in DMSO and tested at various concentrations up to 100 μM. The inhibitors were diluted using HNPT buffer consisting of HEPES 100 mM, NaCl 140 mM, PEG 6000 0.1% and Tween 80 0.02%, pH 7.8. […]
The velocity of the reaction was determined by the autoreader from the slope of the linear regression fit to 7 time points (1 minute). The initial velocity for each inhibitor concentration was determined by the slope of at least 4 time points in the linear phase by a linear regression fit (mOD/min^2). Apparent dissociation constants Ki were calculated according to Cheng and Prusoff [Cheng, Y. C.; Prusoff, W. H. Relationship between the inhibition constant (Ki) and the concentration of the inhibitor that causes 50 percent inhibition (IC50) of an enzyme reaction. Biochem. Pharmacol. 1973, 22, 3099-3108.] based on the IC50 and the respective Km, determined previously (Ki=IC50/(I+S/Km)). […]

Sequence of human factor Xa (P00742 235-488 limits assumed): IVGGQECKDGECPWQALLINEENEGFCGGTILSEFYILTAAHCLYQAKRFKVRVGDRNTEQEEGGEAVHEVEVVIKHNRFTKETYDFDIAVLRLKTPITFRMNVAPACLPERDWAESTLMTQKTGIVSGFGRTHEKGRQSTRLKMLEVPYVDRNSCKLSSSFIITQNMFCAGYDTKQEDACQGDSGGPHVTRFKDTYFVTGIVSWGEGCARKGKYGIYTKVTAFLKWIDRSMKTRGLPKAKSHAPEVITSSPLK
Sequence of human factor Xa (P00742 41-179 partner limits assumed): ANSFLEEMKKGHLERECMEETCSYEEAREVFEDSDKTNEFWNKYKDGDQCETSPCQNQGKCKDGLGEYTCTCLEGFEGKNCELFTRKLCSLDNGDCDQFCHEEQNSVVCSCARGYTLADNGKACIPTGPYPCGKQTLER

## CN1CCC(N2CCN(C(=O)Cc3csc(NC(=O)c4ccc(Br)s4)n3)CC2)CC1 [Ex. 47.3, 5-bromo-thiophene-2-carboxylic acid (4-{2-[4-(1-methyl-piperidin-4-yl)-piperazin-1-yl]-2-oxo-ethyl}-thiazol-2-yl)-amide]
  Ki: 26 nM
